Data on one molecule can be found in publication PMC9259545, “Impact of poly-arginine peptides R18D and R18 on alteplase and tenecteplase thrombolysis in vitro, and neuroprotective stability to proteolysis” (Journal of Thrombosis and Thrombolysis, 2022).

The target of series [1] is T1, tPA (Homo sapiens, UniProt P00750).
T1 construct: purchased Boehringer Ingelheim, Germany 10 mg vial
Kind of series: Halo clot thrombolysis assay, tPA thrombolysis of whole blood clots. The class given is biochemical. The conditions noted are these: tPA 5 nM, 27.5% human plasma. The procedure:
(§1) We utilised a high throughput 96-well plate thrombolysis assay (“halo clot assay”) based on the procedure developed by Bonnard et al.. To reduce assay components the halo thrombus formation procedure was modified by replacing the original thrombotic mixture consisting of recombinant tissue factor and synthetic phospholipids reconstituted in 30 mM calcium, with thrombin, and reducing the pro-thrombotic volume (i.e., thrombin) from 5 to 3 µL and blood volume from 25 to 12 µL. Another modification to simplify clot formation consisted of adding the thrombin (3 µL; 500 nM in saline) to one side of the well and 12 µL of blood to the opposite side of well, before using a heat stretched Pasteur pipette with sealed end to mix the two liquids together using 4 to 5 circular motions around the edge of the well (halo clot). The original methodology involved adding the 5 μL of the clotting mixture to the edge of the well, and then using a micropipette to slowly release the 25 μL of blood to the edge of the well while at the same time maintaining a circular motion. Plates were incubated in a humidified 37 °C incubator for 1 h before use in the thrombolysis assay.
(§2) The thrombolysis assay involved adding 30 µL of Tris buffer (50 mM Tris–HCl, 100 mM NaCl, pH 7.4) with or without peptide followed by 55 µL Tris buffer containing tPA or TNK (5 nM final concentration) and 50% human plasma (final plasma concentration during thrombolysis 27.5%). The final concentration of peptide during thrombolysis ranged from 0.25 to 16 µM (note: an intravenous dose of R18D at 350 nmol/kg, which is likely to be neuroprotective achieves a Cmax of 0.7–0.9 µM in healthy male and female rats; unpublished observation). […] Following the addition of tPA or TNK into the wells, clot lysis was monitored over a 1-h period at 37 °C using a plate reader (Cytation5, BioTek, USA) by measuring absorbance at 510 nm every 1 min immediately after orbital shaking (205 rpm for 5 s). Controls consisted of wells with no thrombin (100% clot lysis; L100%) and wells with no tPA or TNK (0% clot lysis; L0%). At the 1-h time point, the percentage of thrombolysis (%T) in tPA or TNK treated samples (LTX) was calculated by transforming absorbance values based on the formula: % T = (LTX) − (L0%)/(L100%) − (L0%) × 100. In addition, during the 1-h period of clot lysis lag time and maximal activity (also known as maximum velocity or Vmax) of the thrombolysis reaction were calculated. The lag time is defined as the time interval between the first absorbance reading (time = 0) and the line of maximum slope of the thrombolysis reaction. The maximal activity is calculated from the maximum slope over the time course of the assay and reflects the capacity of an enzyme to catalyse a reaction (i.e., thrombolysis), with higher values representing higher catalytic activity (i.e., tPA/TNK induced plasmin thrombolysis).
For each thrombolysis assay, replicates for control wells (L0% and L100%) and tPA or TNK only treated wells consisted of n = 4–8. Replicates for tPA or TNK and peptide treated wells consisted of n = 4. For data analysis and graphical representations of the results, data from three independent thrombolytic assays were pooled. Studies consisted of R18D, R18 and NA-1 examined at the 0.5, 1, 2, 4, 8 or 16 µM concentrations performed concurrently on the same 96-well plate, in respective order. In addition, since R18D is known to be resistant to plasmin degradation and appeared to have the most impact on tPA or TNK thrombolysis, a separate set of three independent assays were performed for this peptide alone at concentrations of 0.25, 0.5, 1, 2, 4, 8 or 16 µM. Furthermore, the second dose study with R18D provided the opportunity to include a lower concentration (0.25 µM) of the peptide and to provide comparative data when only one peptide was examined in the thrombolysis assay per 96-well plate as opposed to examining the three peptides concurrently on the same plate. […]

A further series deals with tPA or TNK. The class given is biochemical, human. The conditions noted are these: range over peptide concentrations 0.25-16 µM and both thrombolytics; 1-h assay. The method, then: as §1, §2
For each thrombolysis assay, replicates for control wells (L0% and L100%) and tPA or TNK only treated wells consisted of n = 4–8. Replicates for tPA or TNK and peptide treated wells consisted of n = 4. For data analysis and graphical representations of the results, data from three independent thrombolytic assays were pooled. Studies consisted of R18D, R18 and NA-1 examined at the 0.5, 1, 2, 4, 8 or 16 µM concentrations performed concurrently on the same 96-well plate, in respective order. […]

Series [2] deals with T1, tPA. The series is described as follows: Neuroprotective proteolytic stability after pre-incubation with tPA (glutamic acid excitotoxicity model, MTS). In kind it is in vitro ADME. The conditions noted are these: 1 or 2 h or overnight (22-24 h). The procedure:
(§3) Neuronal cultures were maintained in CO2 incubator.
(§4) tPA (1000 µg/mL) or TNK (5000 µg/mL) resuspended in water (Baxter) were used to prepare 10 µg/mL (170 nM; note this is 34 times the concentration used in thrombolysis assay) stocks in MEM/2% B27 supplement (MEM/B27).
(§5) All data are presented as mean ± standard deviation (SD).

The target in another series is T2, TNK (Homo sapiens, UniProt P00750, H332A/K331A/N152Q/R333A/R334A/T138N).
T2 construct: purchased Boehringer Ingelheim 50 mg vial
T2 sequence (P00750 36-562 T138N/N152Q/K331A/H332A/R333A/R334A): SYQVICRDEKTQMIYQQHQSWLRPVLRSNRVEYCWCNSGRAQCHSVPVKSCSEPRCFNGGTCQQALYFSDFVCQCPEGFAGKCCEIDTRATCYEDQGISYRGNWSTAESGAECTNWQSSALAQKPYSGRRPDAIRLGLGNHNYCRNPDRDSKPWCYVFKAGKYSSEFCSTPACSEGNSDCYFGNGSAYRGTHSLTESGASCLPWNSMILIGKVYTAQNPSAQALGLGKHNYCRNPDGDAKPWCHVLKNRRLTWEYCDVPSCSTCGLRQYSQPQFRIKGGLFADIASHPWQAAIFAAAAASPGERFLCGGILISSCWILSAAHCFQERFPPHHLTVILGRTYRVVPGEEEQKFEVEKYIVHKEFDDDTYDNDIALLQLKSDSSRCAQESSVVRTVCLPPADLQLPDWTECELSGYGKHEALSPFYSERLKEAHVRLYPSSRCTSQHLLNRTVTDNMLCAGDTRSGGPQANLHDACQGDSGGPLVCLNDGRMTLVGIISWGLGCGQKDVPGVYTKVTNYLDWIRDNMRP
The series is described as follows: Neuroprotective proteolytic stability after pre-incubation with TNK (glutamic acid excitotoxicity model, MTS). In kind it is in vitro ADME. As to conditions: 1 or 2 h or overnight (22-24 h). The method, then: as §3, §4, §5

The conditions of series [3]: in the order; 8 (NA-1), unpublished data (R18D); cited from earlier work. The source says: It is important to mention that the results obtained in this study are likely to overestimate any negative effects of R18D, R18 and NA-1 on tPA/TNK lag time and thrombolysis compared with what would occur clinically for several reasons. Firstly, positively charged peptides administered directly into the circulation would have a larger pool of negatively charged plasma proteins such as albumin to bind, and thus reduce any inhibitory electrostatic effects of the peptides on lag time and thrombolysis. In addition, the in vitro thrombolysis assay used in this study was performed in 27.5% plasma wh ...

[4] abbreviates: separate dose study, R18D alone, 0.25-16 µM.

Non-standard residues stand in square brackets, D forms with d. Residues, ends and D or L forms follow the SMILES beside them.

T1 sequence (P00750 36-562): as the sequence (P00750 36-562 T138N/N152Q/K331A/H332A/R333A/R334A) above, with N103T, Q117N, A296K, A297H, A298R, A299R counted along it

For the molecule `N=C(N)NCCC[C@@H](N)C(=O)N[C@H](CCCNC(=N)N)C(=O)N[C@H](CCCNC(=N)N)C(=O)N[C@H](CCCNC(=N)N)C(=O)N[C@H](CCCNC(=N)N)C(=O)N[C@H](CCCNC(=N)N)C(=O)N[C@H](CCCNC(=N)N)C(=O)N[C@H](CCCNC(=N)N)C(=O)N[C@H](CCCNC(=N)N)C(=O)N[C@H](CCCNC(=N)N)C(=O)N[C@H](CCCNC(=N)N)C(=O)N[C@H](CCCNC(=N)N)C(=O)N[C@H](CCCNC(=N)N)C(=O)N[C@H](CCCNC(=N)N)C(=O)N[C@H](CCCNC(=N)N)C(=O)N[C@H](CCCNC(=N)N)C(=O)N[C@H](CCCNC(=N)N)C(=O)N[C@H](CCCNC(=N)N)C(=O)O` [R18D] (H-[dR][dR][dR][dR][dR][dR][dR][dR][dR][dR][dR][dR][dR][dR][dR][dR][dR][dR]-OH), the “Effect on tPA thrombolysis maximal activity vs tPA control” value at tPA [1] (concurrent study, 0.5-16 µM peptide) is listed as “did not significantly impact tPA thrombolysis maximal activity”. For the same molecule, the “Increase in tPA lag time” value on tPA [1] (peptide 16 µM, concurrent study, 37 °C) came out at 5.85 min. For the same molecule, at tPA [1] (setting [4]), the “Effect on tPA lag time vs tPA control” value was “did not significantly affect tPA lag time at any concentration” and the “Effect on tPA thrombolysis maximal activity vs tPA control” value is reported as “did not significantly impact tPA thrombolysis maximal activity at any concentration”. Besides, the “Effect on percentage tPA thrombolysis at 1 h vs tPA control” value at tPA [1] (separate dose study, R18D alone, 0.25-16 µM, 37 °C, three independent assays) is on record as “did not inhibit tPA thrombolysis”. In addition, the “Effect on percentage tPA thrombolysis at 1 h vs tPA control” value on tPA [1] (three peptides concurrently on the same plate, 0.5-16 µM peptide, Tris pH 7.4, 37 °C, absorbance 510 nm, three independent assays pooled, n = 4, Dunnett's test) is reported as “did not significantly inhibit thrombolysis”. Besides, in the series on tPA or TNK, the “Increase in lag time (time to the commencement of thrombolysis)” value lay within 0 to 9.9 min. Moreover, the “Resistance to degradation by tPA” value at tPA [2] (inferred from retained neuroprotection, peptide 2 µM, tPA 170 nM) is “resistant to degradation”. The “Neuroprotective efficacy after incubation with tPA” value at tPA [2] (peptide 2 µM in MEM/B27 with tPA 10 µg/mL (170 nM), 37 °C CO2 incubator, then rat cortical neurons, glutamic acid 100 µM 5 min, MTS viability at 20-24 h, N = 4-8) was “a similar and a high level of neuroprotective efficacy”. Besides, the “Resistance to degradation by TNK” value at TNK (inferred from retained neuroprotection, peptide 2 µM, TNK 170 nM) is listed as “resistant to degradation”. Besides, the “Neuroprotective efficacy after incubation with TNK” value on TNK (peptide 2 µM in MEM/B27 with TNK 10 µg/mL (170 nM), 37 °C CO2 incubator, then rat cortical neurons, glutamic acid 100 µM 5 min, MTS viability at 20-24 h, N = 4-8) is “a similar and a high level of neuroprotective efficacy”. Also, in series [3], the “In vivo peak plasma concentration” value was 1 to 5 µM and the Plasma half-life was 5 to 15 min.
